The results in this text go back to patent publication US20170121344A1 (Siga Technologies, Inc., priority 2009, published 2017).

One assay concerns DENV-1. The experiment in a line: Viral yield assay against DENV-1 in Vero cells. It counts as cell-based. As to conditions: Dengue virus. The procedure: (§1) Compounds that were active in the primary screen were tested for activity in viral yield assays. […] Vero cells in 12-well plates were infected with dengue-2 virus at a multiplicity of infection (MOI) of 0.1, treated with compound (or DMSO as a control), incubated at 37° C., harvested 48 hours post infection and titered on Vero cells as described above. The EC50 was calculated through ExcelFit. Activities against other serotypes of dengue virus were determined in a similar way.

In a further assay the test system is DENV-3. As to the kind of experiment: Viral yield assay against DENV-3 in Vero cells. It counts as cell-based. Conditions: Dengue virus. The procedure:
as §1

In another assay the test system is DENV-4. The experiment in a line: Viral yield assay against DENV-4 in Vero cells. It counts as cell-based. As to conditions: Dengue virus. Here is the method: as §1
For assay [1], the system named is Dengue-2 (Strain New Guinea C). As to the kind of experiment: Viral yield assay against Dengue-2 in Vero cells. Type of assay: cell-based, Dengue virus. As to conditions: read-out: Activity (EC50 in μM) DENV-2. Summed up:
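Vero cells were infected with dengue-2 at MOI 0.1, treated with compound (DMSO control), and kept at 37° C. They were harvested 48 hours post infection and yield was titered on Vero cells. EC50 came from the yield curve, and the other serotypes were run in a similar way.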

[2] abbreviates: Dengue virus, DENV2, viral yield assay, Vero cells, MOI 0.1, 48 hours post infection.
The mark [3] stands for this setting: Dengue virus, DENV2, Vero cells.

Like-named read-outs stand apart in the source and are kept apart here. Where only a bound is given, the exact number is not on record here.

With `Cc1ccc2c(N)c(C(=O)Nc3nnc(-c4ccccc4)s3)sc2n1` [Compound 284, 3-amino-6-methyl-N-(5-phenyl-1,3,4-thiadiazol-2-yl)thieno[2,3-b]pyridine-2-carboxamide], the EC50 in the assay with DENV-1 (DENV1, viral yield assay) is under 5 µM; in the assay with DENV-3 (DENV3, viral yield assay), 5 to 25 µM; in the assay on DENV-4 (DENV4, viral yield assay) it was over 25 µM; in assay [1] (setting [2]) it was under 5 µM.

Consider `O=C(Nc1c(C(=O)Nc2nnc(-c3ccccc3)s2)sc2nc3c(cc12)CCCCC3)c1ccccc1` [Compound 285, 3-benzamido-N-(5-phenyl-1,3,4-thiadiazol-2-yl)-6,7,8,9-tetrahydro-5H-cyclohepta[b]thieno[3,2-e]pyridine-2-carboxamide], for which the EC50 (in the assay with DENV-1 (DENV1); with DENV-3 (DENV3); with DENV-4 (DENV4); in assay [1] (setting [3])) was under 5 µM in each case.

`Cc1ccnc2sc(C(=O)Nc3nnc(-c4ccccc4)s3)c(N)c12` [Compound 288, 3-amino-4-methyl-N-(5-phenyl-1,3,4-thiadiazol-2-yl)thieno[2,3-b]pyridine-2-carboxamide]: the EC50 was under 5 µM with DENV-1 (DENV1, viral yield assay); 5 to 25 µM with DENV-3 (DENV3, viral yield assay); under 5 µM with DENV-4 (DENV4, viral yield assay); under 5 µM in assay [1] (setting [2]).

For `CCCCNc1c(C(=O)Nc2nnc(-c3ccccc3)s2)sc2nc3c(cc12)CCCCC3` [Compound 289, 3-(butylamino)-N-(5-phenyl-1,3,4-thiadiazol-2-yl)-6,7,8,9-tetrahydro-5H-cyclohepta[b]thieno[3,2-e]pyridine-2-carboxamide], the EC50 (with DENV-1 (DENV1); with DENV-3 (DENV3); with DENV-4 (DENV4); in assay [1] (setting [3])) was under 5 µM throughout.

As to `Nc1c(C(=O)Nc2nnc(-c3ccccc3)s2)sc2nc(Cl)ccc12` [Compound 292], the EC50 was under 5 µM in the assay on DENV-1 (DENV1, viral yield assay); under 5 µM in the assay with DENV-3 (DENV3, viral yield assay); under 5 µM in the assay with DENV-4 (DENV4, viral yield assay); under 5 µM in assay [1] (setting [2]).

With `O=C(O)CNc1c(C(=O)Nc2nnc(-c3ccccc3)s2)sc2nc3c(cc12)CCCCC3` [Compound 293, 2-((2-((5-phenyl-1,3,4-thiadiazol-2-yl)carbamoyl)-6,7,8,9-tetrahydro-5H-cyclohepta[b]thieno[3,2-e]pyridin-3-yl)amino)acetic acid], the EC50 (in the assay with DENV-1 (DENV1); in the assay with DENV-3 (DENV3); in the assay on DENV-4 (DENV4); in assay [1] (setting [3])) was under 5 µM throughout.

`NCCNc1c(C(=O)Nc2nnc(-c3ccccc3)s2)sc2nc3c(cc12)CCCCC3` [Compound 294, 3-((2-aminoethyl)amino)-N-(5-phenyl-1,3,4-thiadiazol-2-yl)-6,7,8,9-tetrahydro-5H-cyclohepta[b]thieno[3,2-e]pyridine-2-carboxamide]: the EC50 (in the assay on DENV-1 (DENV1); with DENV-3 (DENV3); with DENV-4 (DENV4); in assay [1] (setting [3])) was under 5 µM in each case.

Take `O=C(O)CC(=O)Nc1c(C(=O)Nc2nnc(-c3ccccc3)s2)sc2nc3c(cc12)CCCCC3` [Compound 295, 3-oxo-3-((2-((5-phenyl-1,3,4-thiadiazol-2-yl)carbamoyl)-6,7,8,9-tetrahydro-5H-cyclohepta[b]thieno[3,2-e]pyridin-3-yl)amino)propanoic acid]: the EC50 (in the assay with DENV-1 (DENV1); with DENV-3 (DENV3); in the assay with DENV-4 (DENV4); in assay [1] (setting [3])) was under 5 µM throughout.

With `NCC(=O)Nc1c(C(=O)Nc2nnc(-c3ccccc3)s2)sc2nc3c(cc12)CCCCC3` [Compound 296, 3-(2-aminoacetamido)-N-(5-phenyl-1,3,4-thiadiazol-2-yl)-6,7,8,9-tetrahydro-5H-cyclohepta[b]thieno[3,2-e]pyridine-2-carboxamide], the EC50 (in the assay with DENV-1 (DENV1); in the assay with DENV-3 (DENV3); with DENV-4 (DENV4); in assay [1] (setting [3])) was under 5 µM each time.

On to `O=C(Nc1c(C(=O)Nc2nnc(-c3ccccc3)s2)sc2nc3c(cc12)CCCCC3)c1cccnc1` [Compound 297, 3-(nicotinamido)-N-(5-phenyl-1,3,4-thiadiazol-2-yl)-6,7,8,9-tetrahydro-5H-cyclohepta[b]thieno[3,2-e]pyridine-2-carboxamide], for which the EC50 (in the assay with DENV-1 (DENV1); in the assay with DENV-3 (DENV3); with DENV-4 (DENV4); in assay [1] (setting [3])) was under 5 µM throughout.

`O=C(Nc1c(C(=O)Nc2nnc(-c3ccccc3)s2)sc2nc3c(cc12)CCCCC3)c1ccncc1` [Compound 298, 3-(isonicotinamido)-N-(5-phenyl-1,3,4-thiadiazol-2-yl)-6,7,8,9-tetrahydro-5H-cyclohepta[b]thieno[3,2-e]pyridine-2-carboxamide]: the EC50 (in the assay on DENV-1 (DENV1); with DENV-3 (DENV3); with DENV-4 (DENV4); in assay [1] (setting [3])) was under 5 µM each time.

In the case of `O=C(O)CNc1c(C(=O)Nc2nnc(-c3ccccc3)s2)sc2nc(Cl)ccc12` [Compound 299, 2-[[6-chloro-2-[(5-phenyl-1,3,4-thiadiazol-2-yl)carbamoyl]thieno[2,3-b]pyridin-3-yl]amino]acetic acid], the EC50 (in the assay on DENV-1 (DENV1); with DENV-4 (DENV4); in assay [1] (setting [3])) was 5 to 25 µM throughout.

Consider `NCCNc1c(C(=O)Nc2nnc(-c3ccccc3)s2)sc2nc(Cl)ccc12` [Compound 300, 3-(2-aminoethylamino)-6-chloro-N-(5-phenyl-1,3,4-thiadiazol-2-yl)thieno[2,3-b]pyridine-2-carboxamide], for which the EC50 (with DENV-1 (DENV1); in the assay with DENV-3 (DENV3); with DENV-4 (DENV4); in assay [1] (setting [3])) was under 5 µM in each case.

`CN1CCc2nc3sc(C(=O)Nc4nnc(-c5ccccc5)s4)c(N)c3cc2C1` [Compound 301, 3-amino-6-methyl-N-(5-phenyl-1,3,4-thiadiazol-2-yl)-7,8-dihydro-5H-thieno[2,3-b][1,6]naphthyridine-2-carboxamide]: the EC50 in the assay on DENV-1 (DENV1, viral yield assay) is under 5 µM; with DENV-3 (DENV3, viral yield assay), 5 to 25 µM; with DENV-4 (DENV4, viral yield assay), under 5 µM; in assay [1] (setting [2]), under 5 µM.

As for `O=C(O)CC(=O)Nc1c(C(=O)Nc2cccc(C(F)(F)F)c2)sc2nc(-c3cccs3)ccc12` [Compound 302, 3-oxo-3-[[6-(2-thienyl)-2-[[3-(trifluoromethyl)phenyl]carbamoyl]thieno[2,3-b]pyridin-3-yl]amino]propanoic acid], the EC50 in the assay with DENV-1 (DENV1) is under 5 µM; with DENV-3 (DENV3), 5 to 25 µM; with DENV-4 (DENV4), under 5 µM; in assay [1] (setting [3]), under 5 µM.

With `CN1CCc2nc3sc(C(=O)Nc4ccc(OC(F)(F)F)cc4)c(NCC(=O)O)c3cc2C1` [Compound 303, 2-[[6-methyl-2-[[4-(trifluoromethoxy)phenyl]carbamoyl]-7,8-dihydro-5H-thieno[2,3-b][1,6]naphthyridin-3-yl]amino]acetic acid], the half-maximal effective concentration (EC50) is 5 to 25 µM in the assay with DENV-1 (DENV1), 5 to 25 µM in the assay with DENV-3 (DENV3), under 5 µM with DENV-4 (DENV4) and under 5 µM in assay [1] (setting [3]).

For `NCCNc1c(C(=O)Nc2cccc(C(F)(F)F)c2)sc2nc(-c3cccs3)ccc12` [Compound 304, 3-(2-aminoethylamino)-6-(2-thienyl)-N-[3-(trifluoromethyl)phenyl]thieno[2,3-b]pyridine-2-carboxamide], the EC50 (with DENV-1 (DENV1); with DENV-3 (DENV3); in the assay on DENV-4 (DENV4); in assay [1] (setting [3])) was under 5 µM throughout.

Take `COc1cccc(-c2ccc3c(N)c(C(=O)Nc4ccc(C)c(Br)c4)sc3n2)c1` [Compound 559, 3-amino-N-(3-bromo-4-methyl-phenyl)-6-(3-methoxyphenyl)thieno[2,3-b] pyridine-2-carboxamide]: the EC50 in the assay on DENV-3 (DENV3, viral yield assay) was under 5 µM; in the assay with DENV-4 (DENV4, viral yield assay), under 5 µM; in assay [1] (setting [2]), under 5 µM.

As for `COc1ccc(-c2ccc3c(N)c(C(=O)Nc4ccc(OC(F)(F)F)cc4)sc3n2)cc1OC` [Compound 584, 3-amino-6-(3,4-dimethoxyphenyl)-N-[4-(trifluoromethoxy)phenyl]thieno[2,3-b] pyridine-2-carboxamide], the EC50 in the assay on DENV-4 (DENV4, viral yield assay) was under 5 µM; in assay [1] (setting [2]) it was under 5 µM.

Consider `Nc1c(C(=O)Nc2ccc(F)cc2)sc2nc(-c3ccc4c(c3)OCO4)ccc12` [Compound 603, 3-amino-6-(1,3-benzodioxol-5-yl)-N-(4-fluorophenyl)thieno[2,3-b]pyridine-2-carboxamide], for which the EC50 in the assay with DENV-4 (DENV4, viral yield assay) was under 5 µM; in assay [1] (Dengue virus, DENV2, Vero, 48 h), under 5 µM.

Turning to `Nc1c(C(=O)Nc2ccc(F)cc2Cl)sc2nc(-c3ccc(F)cc3)ccc12` [Compound 618, 3-amino-N-(2-chloro-4-fluoro-phenyl)-6-(4-fluorophenyl)thieno[2,3-b]pyridine-2-carboxamide], the EC50 in the assay on DENV-1 (DENV1, viral yield assay) was under 5 µM; in assay [1] (setting [2]), under 5 µM.

For `Nc1c(C(=O)Nc2ccc(Br)cc2)sc2nc(-c3ccc(Cl)cc3Cl)ccc12` [Compound 654, 3-amino-N-(4-bromophenyl)-6-(2,4-dichlorophenyl)thieno[2,3-b]pyridine-2-carboxamide], the EC50 in assay [1] (setting [2]) was under 5 µM.

On to `Nc1c(C(=O)Nc2ccc3c(c2)OCO3)sc2nc(-c3ccc(F)cc3F)ccc12` [Compound 655, 3-amino-N-(1,3-benzodioxol-5-yl)-6-(2,4-difluorophenyl)thieno[2,3-b]pyridine-2-carboxamide], for which, in assay [1] (setting [2]), the EC50 was under 5 µM.

In the case of “N-(1-adamantyl)-3-amino-6-(2-thienyl) thieno[2,3-b]pyridine-2-carboxamide [Compound 426]”, the EC50 in assay [1] (viral yield assay, Vero cells, MOI 0.1, 48 hours post infection) is under 5 µM.

One may read the EC50 as the midpoint of the concentration-response curve.
